Laboratory results as given in patent US9510598B2, “Nitrogen-containing heterocyclic compounds for plant disease control” (BAYER CROPSCIENCE AG, priority 2012, dated 2016).
Several values for one entry are separate records, joined by “and”; a condition that tells them apart may be missing. Identical values can stand only once. Like-named read-outs stand apart in the source and are kept apart here.

Experiments:
[1] = method [a]: pH 2.7, 0.1% formic acid in water / acetonitrile gradient
Experimental: Measurement of log P values was performed according EEC directive 79/831 Annex V.A8 by HPLC (High Performance Liquid Chromatography) on reversed phase columns with the following methods: ^[a]

Botrytis cinerea = test: In vivo preventive test on Botrytis cinerea (grey mould); settings: 500 ppm; gherkin plants sprayed 24 hours before contamination; grading 4-5 days after contamination vs control plants
Method in brief: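 Gherkin plants ("Vert petit de Paris") sprayed with compound at Z11 cotyledon stage, then inoculated 24 h later with B. cinerea spores (50 000/ml) in PDB/fructose/NH4NO3/KH2PO4 nutrient solution. Incubated at 17 °C, 80% RH; % efficacy versus solvent-treated controls graded 4–5 days after contamination.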

Sphaerotheca fuliginea = test: In vivo preventive test on Sphaerotheca fuliginea (powdery mildew on cucurbits); settings: 500 ppm; gherkin plants sprayed 24 hours before contamination; grading 12 days after contamination vs control plants
Experimental: Gherkin plants (“Vert petit de Paris” variety), sown in starter cups on a 50/50 peat soil-pozzolana substrate and grown at 24° C., are treated at the Z11 cotyledon stage by spraying with the active ingredient prepared as described above. Plants, used as controls, are treated with the mixture of acetone/tween/DMSO/water not containing the active material. After 24 hours, the plants are contaminated by spraying the cotyledons with an aqueous suspension of Sphaerotheca fuliginea spores (100 000 spores per ml). The spores are collected from infected plants. […] Grading (% of efficacy) is carried out 12 days after the contamination, in comparison with the control plants.

[2] = format: physicochemical; settings: for chromatographic logP: pH 2.7
Septoria tritici = test: In vivo preventive test on Septoria tritici (leaf spot on wheat); settings: 500 ppm; wheat plants sprayed 24 hours before contamination; grading 21 to 28 days after contamination vs control plants
Method in brief: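 Scipion wheat at 1-leaf stage sprayed with compound, controls receiving acetone/tween/DMSO/water vehicle; 24 h later leaves inoculated with Septoria tritici spores (500 000 spores per ml). Efficacy (%) graded versus control plants 21 to 28 days after contamination.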

[3] = HPLC on reversed phase columns, method [a]: pH 2.7, 0.1% formic acid in water / acetonitrile, linear gradient 10% to 95% acetonitrile
[4] = method [a]: HPLC/LC-MS on reversed phase at pH 2.7, 0.1% formic acid in water / acetonitrile, linear gradient 10% to 95% acetonitrile
[5] = method [a]: HPLC/LC-MS on reversed phase at pH 2.7, 0.1% formic acid in water / acetonitrile, gradient 10% to 95% acetonitrile

Compound | % of efficacy (protection) (Botrytis cinerea) [%] | % of efficacy (protection) (Sphaerotheca fuliginea) | % of efficacy (protection) (Septoria tritici) | log P [2, 3] | further results
COC(=O)C1(C(C)=NO)CC(c2ccc3ncc(Br)cc3c2)=NO1 (stereo not drawn) [II-39] |  |  |  |  | Log P ([1]; Table 2, formula (II)): 2.58[a]
COC(=O)C1(C)CC(c2ccc3nc(Cl)c(I)cc3c2)=NO1 (stereo not drawn) [II-60] |  |  |  |  | Log P ([1]; Table 2, formula (II)): 3.34 and 3.62
COC(=O)C1(C(F)(F)F)CC(c2ccc3ncc(Br)cc3c2)=NO1 (racemic) [II-14] |  |  |  |  | Log P ([1]; Table 2, formula (II)): 3.4[a]
COC(=O)C1(C(C)O)CC(c2ccc3ncc(Br)cc3c2)=NO1 (mixture of isomers) [II-19] |  |  |  |  | Log P ([1]; Table 2, formula (II)): 2.18[a]
CC1(C(=O)O)CC(c2cc3cc(Br)cnc3c(F)c2F)=NO1 (racemic) [II-02] |  |  |  |  | Log P ([1]; Table 2, formula (II)): 2.25[a]
COC(=O)C12CCCC1C(c1ccc3ncc(Br)cc3c1)=NO2 (stereo not drawn) [II-31] |  |  |  |  | Log P ([1]; Table 2, formula (II)): 3.23[a]
COC1(C(=O)O)CC(c2ccc3ncc(Br)cc3c2)=NO1 (racemic) [II-04] |  |  |  |  | Log P ([1]; Table 2, formula (II)): 1.73[a]
ON=C(Cl)c1ccc2ncc(I)cc2c1 [V-08] |  |  |  |  | Log P ([1]; Table 3, formula (V)): 2.63[a]
COC(=O)C1(C2CC2)CC(c2ccc3ncc(Br)cc3c2)=NO1 (racemic) [II-18] |  |  |  |  | Log P ([1]; Table 2, formula (II)): 3.27[a]
CCOC(=O)C1(CC)CC(c2ccc3ncc(C#C[Si](C)(C)C)cc3c2)=NO1 (stereo not drawn) [II-67] |  |  |  |  | Log P ([1]; Table 2, formula (II)): 5.19[a]
COc1nc2ccc(C3=NOC(C)(C(=O)O)C3)cc2cc1Br (stereo not drawn) [II-38] |  |  |  |  | Log P ([1]; Table 2, formula (II)): 2.64[a]
ON=C(Cl)c1ccc2ncc(I)cc2c1 [V-14] |  |  |  |  | Log P ([1]; Table 3, formula (V)): 2.77[a]
C#Cc1cnc2ccc(C3=NOC(CC)(C(=O)O)C3)cc2c1 (stereo not drawn) [II-69] |  |  |  |  | Log P ([1]; Table 2, formula (II)): 2.05[a]
CCc1cnc2ccc(C3=NOC(C)(C(=O)NC(C)C)C3)cc2c1 (stereo not drawn) [Compound No. 259] | 75 | 94% | 100% |  | chromatographic logP [2]: 1.94
C#Cc1cnc2c(Cl)cc(C3=NOC(C)(C(=O)NC(C)C)C3)cc2c1 (stereo not drawn) [compound 543] | 100 | 100% | 100% | 2.96[a] | 
C#Cc1cnc2ccc(C3=NOC(OC)(C(=O)NC(C)CC(=O)OC)C3)cc2c1 (stereo not drawn) [compound 512] | 98 | 97% | 97% | 2.28[a] | 
C#Cc1cnc2ccc(C3=NOC(C)(C(=O)NCC)C3)cc2c1 (stereo not drawn) [compound 527] | 100 | 94% | 97% | 2.12[a] | 
C#Cc1cnc2ccc(C3=NOC(C)(C(=O)NCc4cccnc4)C3)cc2c1 (stereo not drawn) [compound 103] | 98 | 78% | 75% |  | log P [2, 4]: 1.26^[a]
C#Cc1cnc2c(Cl)cc(C3=NOC(C)(C(=O)NCCCOCC)C3)cc2c1 (racemic) [compound 545] | 100 | 100% | 100% | 2.94[a] | 
C#Cc1cnc2ccc(C3=NOC(C)(C(=O)NC)C3)cc2c1 (stereo not drawn) [compound 531] | 100 | 98% | 100% | 1.84[a] | 
C#Cc1cnc2ccc(C3=NOC(C)(C(=O)Nc4cnn(C)c4)C3)cc2c1 (stereo not drawn) [compound 462] | 98 | 98% | 100% |  | log P [2, 5]: 1.98[a]

Compound | % of efficacy (protection) (Botrytis cinerea) [%] | % of efficacy (protection) (Sphaerotheca fuliginea) | % of efficacy (protection) (Septoria tritici) | log P [2, 3] | further results
CCn1cc(CNC(=O)C2(C(F)F)CC(c3ccc4ncc(Br)cc4c3)=NO2)c(C)n1 (stereo not drawn) [compound 621] | 83 | 97% | 97% | 2.64[a] | 
CCn1cc(CNC(=O)C2(C)CC(c3cc4cc(Br)cnc4c(F)c3F)=NO2)c(C)n1 (stereo not drawn) [compound 17] | 100 | 85% | 100% |  | Log P ([2]; method [a]: HPLC/LC-MS on reversed phase at pH 2.7, 0.1% formic acid in water and acetonitrile, linear gradient 10% to 95% acetonitrile): 2.69^[a]
C#Cc1cnc2ccc(C3=NOC(C)(C(=O)NC4CC4C4CC4)C3)cc2c1 (stereo not drawn) [compound 216] | 99 | 98% | 100% |  | log P [2, 4]: 2.92^[a]
C#Cc1cnc2ccc(C3=NOC(C)(C(=O)NC4CCC4)C3)cc2c1 (stereo not drawn) [compound 120] | 100 | 94% | 100% |  | log P [2, 4]: 2.58^[a]
COc1cnc2ccc(C3=NOC(C)(C(=O)NC(C)C)C3)cc2c1 (stereo not drawn) [compound 53] | 99 | 88% | 97% |  | log P [2, 4]: 2.08^[a]
CCCn1cc(CNC(=O)C2(C)CC(c3cc(C)c4ncc(Br)cc4c3)=NO2)c(C)n1 (stereo not drawn) [compound 534] | 100 | 100% | 92% | 3.29[a] | 
C#Cc1cnc2ccc(C3=NOC(C=C)(C(=O)NC(C)C)C3)cc2c1 (stereo not drawn) [compound 727] | 98 | 98% | 100% |  | log P ([2]; HPLC on reversed phase columns, method [a]: pH 2.7, 0.1% formic acid in water and acetonitrile, linear gradient 10% to 95% acetonitrile): 2.73[a]
CC1(C)OCC(CNC(=O)C2(C)CC(c3cc(Cl)c4ncc(Br)cc4c3)=NO2)O1 (stereo not drawn) [compound 540] | 100 | 94% | 92% | 3.17[a] | 
C#Cc1cnc2ccc(C3=NOC(C)(C(=O)NOC(C)C4CC4)C3)cc2c1 (stereo not drawn) [compound 471] | 89 | 98% | 97% |  | log P [2, 5]: 2.43[a]
C#Cc1cnc2ccc(C3=NOC(OC)(C(=O)N(O)C(C)C)C3)cc2c1 (stereo not drawn) [compound 475] | 100 | 88% | 83% |  | log P [2, 5]: 2.08[a]
C#Cc1cnc2ccc(C3=NOC(C)(C(=O)NCc4cnn(Cc5ccccc5)c4)C3)cc2c1 (stereo not drawn) [compound 185] | 95 | 78% | 86% |  | log P [2, 4]: 2.64^[a]
Cc1nc(C)c(C(C)NC(=O)C2(C)CC(c3ccc4ncc(Br)cc4c3)=NO2)s1 (stereo not drawn) [compound 296] | 97 | 100% | 100% | 2.46[a] | 
CC(C)NC(=O)C1(C)CC(c2cc(Cl)c3ncc(Br)cc3c2)=NO1 (stereo not drawn) [compound 541] | 100 | 98% | 100% | 3.29[a] | 
C#Cc1cnc2ccc(C3=NOC(C)(C(=O)NCC4COC(C)(C)O4)C3)cc2c1 (stereo not drawn) [compound 125] | 100 | 98% | 100% |  | log P [2, 4]: 2.35^[a]
C#Cc1cnc2ccc(C3=NOC(C(=O)NCc4cn(CC)nc4C)(C(F)F)C3)cc2c1 (stereo not drawn) [compound 613] | 100 | 100% | 79% | 2.39[a] | 
COC1(C(=O)NCc2cnc(C)cn2)CC(c2cc(C)c3ncc(Br)cc3c2)=NO1 (stereo not drawn) [compound 596] | 99 | 83% | 100% | 2.78[a] | 
CC(NC(=O)C1(C)CC(c2ccc3ncc(Br)cc3c2)=NO1)C1=NOCC1 (stereo not drawn) [compound 293] | 97 | 90% | 96% | 2.34[a] | 
C#Cc1cnc2c(Cl)cc(C3=NOC(C)(C(=O)NCc4cnc(C)cn4)C3)cc2c1 (stereo not drawn) [compound 558] | 97 | 85% | 100% | 2.39[a] | 
C#Cc1cnc2ccc(C3=NOC(C)(C(=O)NCc4cncn4C)C3)cc2c1 (stereo not drawn) [compound 155] | 100 | 89% | 100% |  | log P [2, 4]: 1.91^[a]
CCOCCCNC(=O)C1(C)CC(c2ccc3ncc(Br)cc3c2)=NO1 (stereo not drawn) [compound 32] | 98 | 100% | 79% and 97% |  | log P [2, 4]: 2.69^[a]
CC(C)NC(=O)C1(C)CC(c2ccc3ncc(Cl)cc3c2)=NO1 (stereo not drawn) [Compound No. 55] | 99 | 94% and 98% | 100% |  | chromatographic logP [2]: 2.61
